Measured values published in paper PMC3933693, “Novel Inhibitors of Mitochondrial sn-Glycerol 3-phosphate Dehydrogenase” (PLoS ONE, 2014).

Experiments:
[1] = test system: ubiquinone-binding site of complex I (site IQ); test: Site-specific H2O2 production from site IQ in skeletal muscle mitochondria; type: biochemical, rat;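 further: H2O2 from superoxide detected by Amplex UltraRed fluorescence with added superoxide dismutase and horseradish peroxidase, endpoint read 30–40 min after substrate addition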
Procedure: Superoxide was measured as H2O2 after dismutation by endogenous or exogenous superoxide dismutase. Rates of total superoxide/H2O2 production were measured fluorimetrically using Amplex UltraRed in the presence of exogenous superoxide dismutase and horseradish peroxidase in a Varian Cary Eclipse fluorimeter as previously described [27]. Rates of production from specific sites were determined as previously described using the following eight conditions: flavin mononucleotide site of complex I (site IF) plus matrix NAD-linked dehydrogenases (collectively "site IF/DH") with 5 mM glutamate, 5 mM malate, and 4 µM rotenone [28]; ubiquinone-binding site of complex I (site IQ) with either 0.5 or 5 mM succinate [29]; flavin site of complex II (site IIF) with either 15 µM palmitoylcarnitine, 2.5 µM antimycin A, and 2 µM myxothiazol or 0.5 mM succinate, 4 µM rotenone, 2.5 µM antimycin A, and 2 µM myxothiazol [30], [31]; mGPDH with 1.7 mM glycerol phosphate, 4 µM rotenone, 2.5 µM antimycin A, 2 µM myxothiazol, 1 mM malonate, and 250 nM free calcium; outer ubiquinone-binding site of complex III (site IIIQo) with either 0.5 or 5 mM succinate, 4 µM rotenone and 2.5 µM antimycin A [32]. Candidate small-molecule inhibitors were added prior to the start of measurements and H2O2 calibration curves were performed in the presence of tested compounds.
3,200 compounds were tested initially at 2.5 µM (0.025% DMSO final) in duplicate on different plates against a panel of five distinct assays of site-specific superoxide/H2O2 production as described in the previous section with minor changes. […] Endpoint fluorescence was measured on a Perkin Elmer Victor V3 fluorescent plate reader. The fluorescence intensity of each well was normalized as % change from the average of eight DMSO controls on the same plate. Duplicate wells of each of four modulators of mitochondrial metabolism known to inhibit specific sites of superoxide/H2O2 production were included on each plate as positive controls and the resulting fluorescence levels set as −100% change from DMSO controls. Known inhibitors included 20 mM aspartate (for site IF/DH), 1 µM FCCP (for site IQ), 10 mM malonate (for site IIF), and 2 µM myxothiazol (for site IIIQo). The background fluorescence of the FCCP wells in the site IQ assay was used to normalize mGPDH plates run in parallel. To minimize position-dependent effects across each assay plate, Tukey’s two-way median polish was applied to fluorescence values after initial normalization [35], [36]. Tukey’s polish is an iterative subtraction of the median row and column values from each well’s given row or column. The procedure is repeated until sequential medians for each row and column are zero and positional gradients in fluorescence are eliminated.
These 20 compounds were tested in duplicate at 0.08–80 µM (0.1% DMSO final) in microplate format for effects on site-specific H2O2 production as described above. […] Plates were incubated in the dark at room temperature for 30–40 min (H2O2) or 10–15 min (ΔΨm) after the addition of substrate, and endpoint fluorescence was measured on the Victor plate reader. Endpoints were chosen for the H2O2 assays to provide good signal-to-noise ratios and linear rates of change without the indicator dye limiting the reaction.

[2] = target: T1, purified rabbit muscle cGPDH (Oryctolagus cuniculus, UniProt P08507); test: cGPDH enzymatic activity (NADH oxidation in the presence of DHAP); type: biochemical; conditions: Fig. 5
T1 construct: Activity of purified rabbit muscle cGPDH was measured as described by the manufacturer; purchased; host or cells: rabbit muscle
T1 sequence (P08507 1-349): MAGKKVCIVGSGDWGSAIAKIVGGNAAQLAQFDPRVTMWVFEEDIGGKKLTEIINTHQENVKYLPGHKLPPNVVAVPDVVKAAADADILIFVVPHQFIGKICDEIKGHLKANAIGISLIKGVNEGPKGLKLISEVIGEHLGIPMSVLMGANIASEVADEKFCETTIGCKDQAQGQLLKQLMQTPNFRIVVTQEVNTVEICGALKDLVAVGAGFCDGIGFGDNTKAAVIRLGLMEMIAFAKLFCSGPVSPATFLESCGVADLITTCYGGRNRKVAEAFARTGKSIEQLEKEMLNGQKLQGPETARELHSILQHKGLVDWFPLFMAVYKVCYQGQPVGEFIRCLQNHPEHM
Procedure: The effects of small-molecule inhibitors on cGPDH and mGPDH enzymatic activity were tested according to established procedures. Activity of purified rabbit muscle cGPDH was measured as described by the manufacturer as the rate of oxidation of NADH in the presence of DHAP on the Varian fluorimeter (λex = 365 nm, λem = 450 nm). Activity of cGPDH in frozen-thawed synaptosomes was measured at 37°C in a BMG Labtech PHERAstar Plus microplate reader as the linear rate of change in NADH absorbance (λ = 340 nm) specific to the addition of 2.5 mM DHAP and insensitive to 4 µM rotenone. Rates were converted to nmol NADH using an extinction coefficient of 6.22 mM^−1 ⋅ cm^−1 and a calculated pathlength of 0.6 cm.

[3] = test system: skeletal muscle mitochondria; test: Mitochondrial membrane potential (ΔΨm, TMRM) powered by succinate; type: biochemical, rat
Procedure: Mitochondrial membrane potential (ΔΨm) was estimated fluorimetrically as described previously on the Varian fluorimeter, except the potentiometric dye TMRM was used in quench-mode in place of safranine O [34]. […] The effect of putative small-molecule inhibitors was normalized as the % change in fluorescence between vehicle treatment and complete depolarization by the uncoupler carbonyl cyanide-4-(trifluoromethoxy)phenylhydrazone (FCCP, 2 µM) added at the end of each run. When indicated, the K^+/H^+ exchanger nigericin (80 ng ⋅ ml^−1) was added to collapse the pH gradient across the mitochondrial inner membrane (ΔpH) and maximize ΔΨm.
The assay buffer for both H2O2 and ΔΨm measurements was 120 mM KCl, 5 mM HEPES, 1 mM EGTA, 0.3% (w/v) BSA without or with 250 nM free calcium at pH 7.0. All assays were performed with stirring at 37°C.
Structure/activity analysis was performed on 18 structural analogs of two structurally-related hits from the primary screen (iGP-1 and iGP-2). These 20 compounds were tested in duplicate at 0.08–80 µM (0.1% DMSO final) in microplate format for effects on site-specific H2O2 production as described above. Additionally, four microplate assays for ΔΨm were run in parallel to the H2O2 assays. These assays were as described under “Measurement of mitochondrial H2O2 production and membrane potential” except that each substrate condition was assayed in a separate microplate. […] Plates were incubated in the dark at room temperature for 30–40 min (H2O2) or 10–15 min (ΔΨm) after the addition of substrate, and endpoint fluorescence was measured on the Victor plate reader. Endpoints were chosen for the H2O2 assays to provide good signal-to-noise ratios and linear rates of change without the indicator dye limiting the reaction. Endpoints for the ΔΨm assays were determined in pilot experiments as the times for TMRM accumulation to reach a steady state. […] Endpoint fluorescence values were normalized as described in the previous section with wells containing FCCP serving as positive controls for the ΔΨm assays.

[4] = test system: skeletal muscle mitochondria; test: Mitochondrial membrane potential (ΔΨm, TMRM) powered by glycerol phosphate; type: biochemical, rat
[5] = test system: skeletal muscle mitochondria; test: Mitochondrial membrane potential (ΔΨm, TMRM) powered by glutamate plus malate; type: biochemical, rat
cortical synaptosomes = test: Synaptosomal respiration (Seahorse XF24); type: cell-based, mouse; conditions: 100 µM iGP-1, 0.5 mM aminooxyacetate
Procedure: Synaptosomal respiration was tested in the Seahorse XF24 using published protocols, [41]. Synaptosomes (20 or 25 µg protein) were attached to polyethyleneimine and Geltrex-coated Seahorse plates by centrifugation in ionic medium, [41] containing 10 mM glucose. Attachment buffer was carefully replaced with ionic buffer containing DMSO, 100 µM iGP-1, 0.5 mM aminooxyacetate, or iGP-1 with aminooxyacetate, and either 10 mM pyruvate or 15 mM glucose. Plates were equilibrated for 20 min at 37°C then loaded into the instrument followed by measurement of basal respiration and injection of 5 µM FCCP (to induce maximal, uncoupled respiration) with 4 µg ⋅ mL^−1 oligomycin (to prevent compensatory reversal of ATP synthase). In some experiments, 10 mM oxamate was added with the FCCP/oligomycin to minimize regeneration of cytosolic NAD^+ by lactate dehydrogenase. Inhibition of the malate-aspartate shuttle was defined as the difference between maximal rates ± aminooxyacetate, expressed as % of control. Inhibition of the glycerol phosphate shuttle was the difference between maximal rates with aminooxyacetate ± iGP-1, as % of control.

For `O=C(O)CCC(=O)Nc1ccc(-c2nc3ccccc3[nH]2)cc1` [iGP-1], the “IQ H2O2 production with 5 mM Suc (% change at 80 μM)” value ([1]; 80 μM, 5 mM succinate) was -9%, the “concentration above which H2O2 production by site IQ starts to be inhibited” value ([1]; Fig. 6B) was “above 10 µM” and the “IQ (% change from DMSO)” value ([1]; primary screen, ∼2.5 µM, average of duplicates, 5 mM succinate) was 1.0%. The “effect on the soluble form of GPDH (cGPDH) activity” value [2] was “did not inhibit”, the “effect on ΔΨm powered by 0.5 mM succinate” value ([3]; 80 µM, 0.5 mM succinate) was “significantly decreased” and the “effect on ΔΨm powered by 5 mM succinate” value ([3]; 5 mM succinate) was “no effect”. For the same compound, the “ΔΨm with GP + Nig (% change at 80 μM)” value ([4]; 80 μM, 16.7 mM glycerol phosphate, 4 µM rotenone, nigericin) was -20%, the “effect on ΔΨm powered by glycerol phosphate” value ([4]; 8, 25, and 80 µM) was “significantly decreased” and the “ΔΨm with Glu + Mal + Nig (% change at 80 μM)” value ([5]; 80 μM, 5 mM glutamate, 5 mM malate, with nigericin) was 4%. The “ΔΨm with Glu + Mal (% change at 80 μM)” value ([5]; 80 μM, 5 mM glutamate, 5 mM malate, without nigericin) was 15%, the “ΔΨm (% change from DMSO)” value ([5]; primary screen, ∼2.5 µM, average of duplicates, glutamate and malate) was 0.154% and the “effect on ΔΨm powered by glutamate and malate” value ([5]; without or with nigericin) was “no effect”. For the same compound, the “effect on basal or maximal respiration with pyruvate” value (cortical synaptosomes; 10 mM pyruvate) was “no effect” and the “effect on basal and maximal respiration with glucose” value (cortical synaptosomes; 15 mM glucose, no oxamate) was “no effect”.
